Experimental findings from ChEMBL document CHEMBL1121877, “Isomeric phenylthioimidazo[1,2-alpha]pyridines as anthelmintics” (1981) are described below.

Common to all, as to assay type: functional
For test [1], the species on record is Mus musculus. The experiment in a line: Compound (1000 p.p.m.) was tested for percent reduction of Nematospiroides dubius in mice.
The species named for test [2] is Mus musculus. The test is described as follows: Compound (62.5 p.p.m.) was tested for percent reduction of Nematospiroides dubius in mice.
For test [3], the species on record is Mus musculus. The experiment in a line: Compound (250 p.p.m.) was tested for percent reduction of Nematospiroides dubius in mice.
For test [4], the species on record is Mus musculus. The test is described as follows: Compound (125 p.p.m.) was tested for percent reduction of Nematospiroides dubius in mice.
For test [5], the species on record is Mus musculus. The experiment in a line: Compound (500 p.p.m.) was tested for percent reduction of Nematospiroides dubius in mice.

Molecule `COC(=O)Nc1cn2ccccc2n1` gave a Reduction in the test listed under Mus musculus [1] of 54%.

The molecule `COC(=O)Nc1cn2c(Sc3ccccc3)cccc2n1` yielded a Reduction in the test listed under Mus musculus [1] of 0%.

On to `COC(=O)Nc1cn2cc(Sc3ccccc3)ccc2n1`, for which the Reduction in the test listed under Mus musculus [2] came to 20%; in the test listed under Mus musculus [3], 98%; in the test listed under Mus musculus [4], 75%; in the test filed under Mus musculus [5], 100%.

For `COC(=O)Nc1cn2cccc(Sc3ccccc3)c2n1`, the Reduction in the test filed under Mus musculus [1] is 0%.

In the case of `COC(=O)Nc1cn2cc([S+]([O-])c3ccccc3)ccc2n1` (stereo not given), the figures for the Reduction in the test listed under Mus musculus [2], in the test filed under Mus musculus [3] and in the test filed under Mus musculus [4] were 90%, 100% and 100%, respectively.

`COC(=O)Nc1cn2ccc(Sc3ccccc3)cc2n1`: in the test filed under Mus musculus [1], the Reduction turned out to be 0%.

Take `CC(C)OC(=O)Nc1ccc2[nH]c(-c3cscn3)nc2c1` [CAMBENDAZOLE]: the Reduction in the test listed under Mus musculus [1] came to 100%; in the test listed under Mus musculus [2], 0%; in the test filed under Mus musculus [3], 20%; in the test listed under Mus musculus [4] it was 0%; in the test listed under Mus musculus [5], 80%.

Consider `COC(=O)Nc1nc2cc(Sc3ccccc3)ccc2[nH]1` [FENBENDAZOLE], for which the Reduction is recorded as 0% in the test filed under Mus musculus [2], 97% in the test filed under Mus musculus [3], 74% in the test listed under Mus musculus [4] and 100% in the test filed under Mus musculus [5].

`c1ccc2[nH]c(-c3cscn3)nc2c1` [THIABENDAZOLE]: the Reduction in the test listed under Mus musculus [1] stood at 87%; in the test filed under Mus musculus [2], 0%; in the test listed under Mus musculus [3], 0%; in the test filed under Mus musculus [4], 0%; in the test listed under Mus musculus [5], 47%.
